The nature of series [1]: Hygroscopicity of the salts. Format: physicochemical.
Series [2] is described as follows: Corrosiveness of the salts. Type of series: physicochemical.
Series [3] is described as follows: Storage of tablets at room temperature in an open container (discoloration). Type of series: physicochemical. The following applies: tablets stored 9 days at room temperature (15-25° C.) in an open container. Here is the method: Tablets were stored for 9 days at room temperature (15-25° C.) in an open container.
The subject of series [4] is mammals. Description: Toxicity of prasugrel salts with regard to mammals. Type of series: in vivo. The note with it: compared with other salts. From the text:
Although the exact reason for this low toxicity hat not yet been found, it is assumed that this effect is due to a different solubility of the salts. The toxicity and safety margin of prasugrel can be controlled by varying the solubility of its salts.

Counter-ions that a name gives are not always drawn.

On to `CC(=O)Oc1cc2c(s1)CCN(C(C(=O)C1CC1)c1ccccc1F)C2.O=S(=O)(O)c1cccc2c(S(=O)(=O)O)cccc12` (stereo not shown) [prasugrel napadisylate, Prasugrel-1,5-Dinapsylate], for which the hygroscopicity entry in series [1] is on record as “not hygroscopic”. Further, the corrosiveness entry in series [2] is recorded as “not corrosive”.
Taken in the same sequence, the figures for `CC(=O)Oc1cc2c(s1)CCN(C(C(=O)C1CC1)c1ccccc1F)C2.O=S(=O)(O)c1ccc2ccccc2c1` (stereo not shown) [prasugrel napsylate, Prasugrel-2-Napsylate] were “not hygroscopic” and “not corrosive”.
On to `CC(=O)Oc1cc2c(s1)CCN(C(C(=O)C1CC1)c1ccccc1F)C2` (stereo not shown) [prasugrel-HCl, Prasugrel-Hydrochloride], for which the “discoloration of tablets on storage” value in series [3] is reported as “clear discoloration”.
Turning to Prasugrel-Besylate [prasugrel besylate], the toxicity entry in series [4] was “very low toxicity”. The hygroscopicity entry in series [1] is reported as “not hygroscopic”.

Source of the values: patent US20110003847A1, “Prasugrel Salts with Improved Properties” (HELM AG, priority 2008, published 2011).
